Measurements as given in patent publication US11753407B2, “Compounds for treating spinal muscular atrophy” (PTC Therapeutics, Inc., priority 2012, dated 2023).

What was measured:
[1] = test system: SMN2 minigene mRNA (SMN2-A minigene) in HEK293H cells; experiment: SMN2 minigene mRNA splicing RT-qPCR assay in cultured cells; format: cell-based, human; details: Homo sapiens, HEK293-H; concentration increasing full length SMN2 mRNA 1.5-fold relative to vehicle-treated cells; HEK293H cells with SMN2-A minigene, 24 hours, 7-point concentration data; read-out: EC1.5x for production of full length SMN2 mRNA
Method in brief: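 EC1.5× values derive from a 24 h treatment of SMN2-A minigene HEK293H cells and GAPDH-normalized RT-qPCR of exon 7-included minigene mRNA relative to vehicle-treated cells.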

[2] = test system: Smn protein in SMA patient fibroblast cells (GM03813); experiment: Smn protein assay in cultured cells (SMN HTRF); format: cell-based, human; details: SMA patient fibroblast cells, 48 hours; for maximum fold (Fold) increase of Smn protein: 7-point concentration data, fold relative to vehicle control; for EC1.5x for Smn protein expression: 7-point concentration curve, SMN HTRF, concentration producing 1.5 times Smn protein vs DMSO vehicle control
Method in brief: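 Cells were cultured 72 h, seeded at 5,000/well and dosed with seven concentrations (3.16-fold apart) for 48 h. HTRF on lysates, read at 665 and 620 nm, gave blank-corrected ΔF values relative to DMSO. Potency is reported as EC1.5×, efficacy as maximal fold Smn increase.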

Row | SMILES | EC (1.5-fold increase) [1] | maximum fold (Fold) increase of Smn protein [2] | melting point | EC1.5x for Smn protein expression [2]
1 | COc1cc(-c2cc(=O)n3cc(N4CCN[C@@H](C)C4)ccc3n2)cc(F)c1F [Compound 217, 2-(3,4-difluoro-5-methoxyphenyl)-7-[(3S)-3-methylpiperazin-1-yl]-4H-pyrido[1,2-a]pyrimidin-4-one] | 0.3 to 1 µM | *** (a fold increase between >1.35 and ≤1.5 is indicated by three stars (***)) | 160 to 164 °C | 
2 | COc1cc(-c2cc(=O)n3cc(N4CCNCC4)ccc3n2)cc(F)c1F [Compound 218, 2-(3,4-difluoro-5-methoxyphenyl)-7-(piperazin-1-yl)-4H-pyrido[1,2-a]pyrimidin-4-one] | 0.1 to 0.3 µM | *** (a fold increase between >1.35 and ≤1.5 is indicated by three stars (***)) | 155 to 160 °C | ** (an EC1.5× between >1 μM and ≤3 μM is indicated by two stars (**))
3 | Cc1nc2ccc(-c3cc(=O)n4cc(N5CCNCC5)ccc4n3)cc2s1 [Compound 219, 2-(2-methyl-1,3-benzothiazol-6-yl)-7-(piperazin-1-yl)-4H-pyrido[1,2-a]pyrimidin-4-one] | < 0.1 µM | **** (a fold increase between >1.5 and ≤1.65 is indicated by four stars (****)) | 218 to 220 °C | **** (an EC1.5x≤0.3 μM is indicated by four stars (****))
4 | Cc1nc2ccc(-c3cc(=O)n4cc(N5CCN[C@@H](C)C5)ccc4n3)cc2s1 [Compound 221, 2-(2-methyl-1,3-benzothiazol-6-yl)-7-[(3S)-3-methylpiperazin-1-yl]-4H-pyrido[1,2-a]pyrimidin-4-one] | < 0.1 µM | ***** (a fold increase >1.65 is indicated by five stars (*****)) | 214 to 216 °C | **** (an EC1.5x≤0.3 μM is indicated by four stars (****))
5 | CN[C@H]1CCN(c2ccc3nc(-c4ccc(OC)c(F)c4)cc(=O)n3c2)C1 [Compound 222, 2-(3-fluoro-4-methoxyphenyl)-7-[(3S)-3-(methylamino)pyrrolidin-1-yl]-4H-pyrido[1,2-a]pyrimidin-4-one] | 0.3 to 1 µM | *** (a fold increase between >1.35 and ≤1.5 is indicated by three stars (***)) | 208 to 216 °C | 
6 | CNCC1CCN(c2ccc3nc(-c4ccc(OC)c(F)c4)cc(=O)n3c2)CC1 [Compound 223, 2-(3-fluoro-4-methoxyphenyl)-7-{4-[(methylamino)methyl]piperidin-1-yl}-4H-pyrido[1,2-a]pyrimidin-4-one] | 0.3 to 1 µM | *** (a fold increase between >1.35 and ≤1.5 is indicated by three stars (***)) | 163 to 170 °C | 
7 | COc1ccc(-c2cc(=O)n3cc(N4CC[C@H](N)C4)ccc3n2)cc1F [Compound 224, 7-[(3S)-3-aminopyrrolidin-1-yl]-2-(3-fluoro-4-methoxyphenyl)-4H-pyrido[1,2-a]pyrimidin-4-one] | 0.3 to 1 µM | **** (a fold increase between >1.5 and ≤1.65 is indicated by four stars (****)) | 193 to 198 °C | *** (an EC1.5× between >0.3 μM and ≤1 μM is indicated by three stars (***))
8 | COc1ccc(-c2cc(=O)n3cc(N[C@@H]4CCN(C)C4)ccc3n2)cc1F [Compound 225, 2-(3-fluoro-4-methoxyphenyl)-7-{[(3R)-1-methylpyrrolidin-3-yl]amino}-4H-pyrido[1,2-a]pyrimidin-4-one] | 1 to 3 µM | * (A maximum fold increase of ≤1.2 is indicated by one star (*)) | 197 to 202 °C | 
9 | COc1ccc(-c2cc(=O)n3cc(N4CCC(CN(C)C)CC4)ccc3n2)cc1F [Compound 226, 7-{4-[(dimethylamino)methyl]piperidin-1-yl}-2-(3-fluoro-4-methoxyphenyl)-4H-pyrido[1,2-a]pyrimidin-4-one] | 0.3 to 1 µM | * (A maximum fold increase of ≤1.2 is indicated by one star (*)) | 178 to 185 °C | 
10 | COc1cccc(-c2cc(=O)n3cc(N4CCNCC4)ccc3n2)n1 [Compound 227, 2-(6-methoxypyridin-2-yl)-7-(piperazin-1-yl)-4H-pyrido[1,2-a]pyrimidin-4-one] | 1 to 3 µM | *** (a fold increase between >1.35 and ≤1.5 is indicated by three stars (***)) | 214 to 218 °C | 
11 | O=c1cc(-c2cccnc2)nc2ccc(N3CCNCC3)cn12 [Compound 228, 7-(piperazin-1-yl)-2-(pyridin-3-yl)-4H-pyrido[1,2-a]pyrimidin-4-one] | 1 to 3 µM | ** (a fold increase between >1.2 and ≤1.35 is indicated by two stars (**)) | 175 to 178 °C | 
12 | COc1cncc(-c2cc(=O)n3cc(N4CCNCC4)ccc3n2)c1 [Compound 229, 2-(5-methoxypyridin-3-yl)-7-(piperazin-1-yl)-4H-pyrido[1,2-a]pyrimidin-4-one] | 0.3 to 1 µM | *** (a fold increase between >1.35 and ≤1.5 is indicated by three stars (***)) | 192 to 195 °C | * (An EC1.5× for Smn protein expression between >3 μM and ≤10 μM is indicated by one star (*))
13 | C[C@H]1CN(c2ccc3nc(-c4cc(F)cc(C#N)c4)cc(=O)n3c2)CCN1 [Compound 230, 3-fluoro-5-{7-[(3S)-3-methylpiperazin-1-yl]-4-oxo-4H-pyrido[1,2-a]pyrimidin-2-yl}benzonitrile] | 0.3 to 1 µM | **** (a fold increase between >1.5 and ≤1.65 is indicated by four stars (****)) | 185 to 188 °C | ** (an EC1.5× between >1 μM and ≤3 μM is indicated by two stars (**))
14 | N#Cc1cc(F)cc(-c2cc(=O)n3cc(N4CCNCC4)ccc3n2)c1 [Compound 231, 3-fluoro-5-[4-oxo-7-(piperazin-1-yl)-4H-pyrido[1,2-a]pyrimidin-2-yl]benzonitrile] | 0.3 to 1 µM | **** (a fold increase between >1.5 and ≤1.65 is indicated by four stars (****)) | 238 to 244 °C | ** (an EC1.5× between >1 μM and ≤3 μM is indicated by two stars (**))
15 | COc1ccc(-c2cc(=O)n3cc(N4C[C@H](O)[C@@H](N5CCCC5)C4)ccc3n2)cc1F [Compound 232, 2-(3-fluoro-4-methoxyphenyl)-7-[(3′S,4′S)-4′-hydroxy-1,3′-bipyrrolidin-1′-yl]-4H-pyrido[1,2-a]pyrimidin-4-one] | 1 to 3 µM | * (A maximum fold increase of ≤1.2 is indicated by one star (*)) | 226 to 232 °C | 
16 | COc1ccc(-c2cc(=O)n3cc(N(C)[C@@H]4CCNC4)ccc3n2)cc1F [Compound 233, 2-(3-fluoro-4-methoxyphenyl)-7-{methyl[(3R)-pyrrolidin-3-yl]amino}-4H-pyrido[1,2-a]pyrimidin-4-one] | 0.3 to 1 µM | * (A maximum fold increase of ≤1.2 is indicated by one star (*)) | 143 to 147 °C | 
